Data published in patent US20220087996A1, “Histone acetylase p300 inhibitor and use thereof” (HINOVA PHARMACEUTICALS INC., priority 2018, published 2022).

Tested on: MCF-7 cells
Experiment: Compound in combination with CDK4/6 inhibitor palbociclib against proliferation of MCF-7 cells
Format: cell-based
Settings: for IC50: Homo sapiens
Method: 1) CWR22RV1 cells were subcultured in cell culture medium, and the cells in good growth condition were seeded in a 96-well plate, 60 μL for each well, and the cell number in each well was 2000. The plate was incubated overnight in a 37° C., 5% CO2 cell incubator. 2) The drug was prepared as 10 mM stock solution with dimethyl sulfoxide (DMSO). Prior to use, the stock solution was diluted 3 times with DMSO, and then further diluted as 3-fold gradient to obtain 9 concentration gradients. Then, each concentration of compound was diluted 200 times with the culture solution (ensuring that the DMSO concentration in the culture system was 0.1%), and two replicate wells were set for each concentration. 20 μL of diluted compound solution was added to the cell culture well (with final concentrations of 10 μM, 3.3 μM, 1.1 μM . . . ). Palbociclib was diluted with culture medium to 500 nM, 150 nM, 50 nM, 5 nM, and 20 μL diluted compound solution was added to the corresponding cell culture wells (with a final concentration of 100 nM, 30 nM, 10 nM, 1 nM). The plate was gently shaken to mix. In addition, 3 negative control wells containing only cells and 3 blank control wells containing only culture medium were included (6 wells were each added 20 μL DMSO diluted 200 times with culture medium).
(1) After culturing for 6 days, 10 μL CCK-8 was added to each well, and the plate was continually cultured in a 37° C., 5% CO2 cell incubator for 2.5 h. (2) The absorbance (OD value) was detected at 450 nm using a multifunctional microplate reader. (3) The data were analyzed by Dose-response-inhibition equation in the software GraphPad Prism6, and the IC50 value was obtained.
Using the same method as Experimental example 4, CWR22RV1 cells were replaced with MCF-7 cells, and the IC50 values (nM) of the compound according to the present invention, palbociclib, as well as the combination of the compound according to the present invention and palbociclib against the proliferation of MCF-7 cells w ere tested and calculated.

- IC50 (MCF7, in combination with 10 nM palbociclib): 19 nM
- IC50 (MCF7, in combination with 30 nM palbociclib): 1.6 nM
- IC50 (MCF7, in combination with 100 nM palbociclib): 1.5 nM
- IC50 (MCF7, single agent): 81 nM
SMILES: CNC(=O)Nc1ccc2c(c1)CC[C@@]21OC(=O)N(CC(=O)N2C(C)CC[C@H]2c2cc(F)c(F)c(F)c2)C1=O (stereo in doubt) [Example 205, 1-((R)-3′-(2-((2S,5R)-2-(3,4,5-trifluorophenyl)-5-methylpyrrolidin-1-yl)-2-oxoethyl)-2′,4′-dioxo-2,3-dihydrospiro[indene-1,5′-oxazolidine]-5-yl)-3-methylurea]
- inhibitory activity on MCF-7 cells when combined with palbociclib, versus either agent alone (combination with CDK4/6 inhibitor palbociclib): much higher
